# Calls of active or inactive are those of the source.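 How the source made its calls: active means compounds giving half or more protection of infected cells from virus-caused growth loss, again on retest; inactive means the rest.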
# Test system: CEM cells HIV-1 protection, formazan growth assay
# Assay: NCI AIDS Antiviral Assay
# Settings: for IC50: measured here: growth of uninfected CEM cells
# Outline: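 Soluble formazan readout of cell growth; CEM cells ± HIV-1; 5 drug concs. ≥50% protection → retest; ≥50% again = moderately active; reproducible 100% = confirmed active.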
SMILES,EC50 [µM],IC50 [µM],outcome
S=C1N(c2ccc(Cl)cc2)C2=C(N=Nc3ccccc3Cl)C(=Nc3ccccc3S2)N1c1ccccn1,> 46.8,21.9,–
c1cc2c(cc1NC1=NCCO1)OCO2,> 200,58.9,–
Cc1ccc2c(c1)C(=O)CC1CC(=O)c3ccccc3C21 (stereo not given),> 200,> 200,–
CCOC(=O)CC1(c2ccccc2)OC(=O)c2ccccc21 (stereo not given),–,–,inactive
CSC(SC)=C1C(=O)NN=C1C,> 200,> 200,–
CCCCN=NNc1cn(C2OC(CO)C(O)C2O)c(=O)[nH]c1=O (stereo not given),> 200,> 200,–
COc1cc2c(cc1O)CN1CCC23C=C[C@@H](O)CC13 (stereo not given in full),> 912,38.9,–
COC(=O)[C@]12CCC(=O)N1[C@H](C(=O)O)Cc1c2[nH]c2ccccc12,> 200,> 200,–
CCC(c1ccc(OC)cc1)C1NC(=S)NC1=O (stereo not given),> 200,31.6,–
COc1cccc2c1C(=O)c1c(O)c3c(c(O)c1C2=O)C[C@@](O)(C(C)=O)C[C@@H]3OC1CC(N(Cc2ccccc2)Cc2ccccc2)C(O)C(C)O1 (stereo not given in full),–,–,inactive
O=C(OCCN1CCCC12CCCCC2)C(c1ccccc1)C1CCCC1 (stereo not given),> 200,7.76,–
CCCCC1SC2=NCCN2C1(O)c1ccc(Cl)cc1 (stereo not given),> 200,102,–
O=C1N[C@H]2[C@H](CS[C@H]2CCCCC(=O)N(CCP(c2ccccc2)c2ccccc2)CCP(c2ccccc2)c2ccccc2)N1,> 14.8,> 14.8,–
CCN(CC)c1c(C(=O)/C=C/c2ccc(OC)cc2)c(-c2ccccc2)nn(C)c1=O,> 9.12,> 9.12,–
COC(=O)C1C2c3ccccc3-c3ccccc3C2(OC(C)=O)[C@@]1(Cl)C(=O)OC (stereo not given in full),> 43.7,6.61,–
Cc1cccc(-c2nc(-c3cnccn3)n(Cc3ccccc3)n2)c1,> 200,> 200,–
COc1cc2c(c(O)c1O)C(=O)C1CCC(=O)N1C2c1cccc2ccccc12 (stereo not given),> 50.1,35.5,–
O=C1c2cccc(O)c2Cc2c(O)cc(CO)cc21,> 100,52.5,–
Cc1csc2nc(-c3ccncc3)cn12,> 417,105,–
CCS[C@]1(C)C(=O)c2ccccc2C(=O)[C@@]1(C)O,–,–,inactive
CC1=C(C)C(=O)c2c(cc3ccc4ccccc4n23)C1=O,–,–,inactive
CC1(C)C[C@H]2[C@H](O)C(CO)=C3CC(O)C3(C)[C@H]2C1 (stereo not given in full),> 141,66.1,–

SMILES,EC50 [µM],IC50 [µM],outcome
CC(C)NCC(O)COC(=O)c1cccs1 (stereo not given),–,–,inactive
O=C1C=CC(=O)N1n1c(Cc2ccccc2)n[nH]c1=O,> 200,> 200,–
Cc1ccccc1S(=O)(=O)N1CCN(S(=O)(=O)c2ccccc2C)CC1,> 200,> 200,–
O=c1c2cc([N+](=O)[O-])ccc2sc2ccsc12,> 97.7,> 97.7,–
O=c1[nH]c(=O)n(C2CC(O)C(CO)O2)cc1OC/C=C/Cc1ccccc1 (stereo not given),> 200,> 200,–
CSc1nc(Nc2cccc(C(F)(F)F)c2)c2c(N)nn(C)c2n1,> 200,> 200,–
CC(C#N)(CCC(=O)O)N=NC(C)(C#N)CCC(=O)O (stereo not given),> 891,> 891,–
O=C1N=NC(=O)c2ccccc21,> 200,> 200,–
CCOc1ccc(Nc2nc(C)c(C(=O)CC(=O)C(=O)Nc3ccc(C(C)C)cc3C(C)C)s2)cc1,> 200,105,–
CC(=O)C12C[C@](C#N)(N3CCCCCC3)C1C=Cc1ccccc12 (stereo not given in full),> 200,> 200,–
O=c1oc2ccccc2c(O)c1[N+](=O)[O-],> 200,> 200,–
COc1ccc2c(c1)CCN1CCCc3ccccc3C21 (stereo not given),> 200,26.9,–
Cc1nn(C(=O)c2ccccc2O)c2c1C(c1ccc([N+](=O)[O-])cc1)SC(N)=N2 (stereo not given),> 2,0.389,–
Cc1cc(O)c2c(O)c3c(O)cc(=O)c(-c4c(=O)cc(O)c5c(O)c6c(O)cc(C)oc6cc45)c3cc2o1,–,–,inactive
Cc1nn(C)c2nc(=O)n(C)c(=O)c-2[n+]1[O-],> 200,26.9,–
N#Cc1c(N)nc(N)nc1Nc1ccc(I)cc1,> 200,23.4,–
CC(=O)C(N)=Nc1ccccc1,> 1550,> 1550,–
O=C1CNc2cc(N3CCN(c4cccc(C(F)(F)F)c4)CC3)ccc2N1,> 200,75.9,–
Brc1ccc2[nH]c3nc(N/N=C/c4cccs4)nnc3c2c1,> 200,> 200,–
CN(COC(=O)C(C)(C)C)c1nc(N(C)COC(=O)C(C)(C)C)nc(N(C)COC(=O)C(C)(C)C)n1,> 100,18.6,–
CC1(OCc2ccccc2)C(=O)N2C1N(C(=O)OCc1ccccc1)CC2(C)C (stereo not given),> 251,53.7,–
Cc1cc2c(=O)cc(-c3ccc(C(=O)O)cc3)oc2c(C(N)=O)c1C,–,–,inactive

SMILES,EC50 [µM],IC50 [µM],outcome
O=C(NCc1ccc(Cl)c(Cl)c1)c1nc2ccccc2nc1NCc1ccc(Cl)c(Cl)c1,> 126,55,–
OCc1cc2c(ccc3sc4ccc5sc6ccc7ncccc7c6c5c4c32)s1,> 200,11.2,–
N#Cc1c(O)c(N=Nc2ccc(Cl)cc2)c(=O)n2c1[nH]c1ccccc12,> 200,53.7,–
O=C(Nn1c(-c2ccccc2)nc2ccccc2c1=O)c1ccc(Cl)cc1,> 200,120,–
OCC1OC(n2nc(-c3ccccc3)nc2-c2cnccn2)C(O)C1O (stereo not given),> 200,> 200,–
CCCCCCCCCCCCN(O)C(=O)c1ccccc1,> 17,> 17,–
Cc1ccc(/C=C2\CCS(=O)(=O)c3ccccc3C2=O)cc1,> 200,9.77,–
O=C(Nc1ccc(Br)cc1)c1c(-c2ccccc2)c2ccc(O)cc2oc1=O,> 34.7,32.4,–
CC(C)C(=O)/C=C/c1ccc(Br)cc1,–,–,inactive
Cc1n[nH]c(=O)n1/N=C\c1ccccc1,> 200,> 200,–
COC1[C@]2(O)C(=O)N3/C=C\C(C)(C)c4[nH]c5ccccc5c4/C=C\3C(=O)N2C23C(C)C(C)(C)N2c2ccccc2[C@]13O (stereo not given in full),–,–,inactive
CCCCc1cc(=O)oc2c3c(c4c(c12)OC(C)(C)C=C4)O[C@H](C)[C@@H](C)[C@H]3O,> 63.1,15.5,–
S=C1Nc2ccccc2SC1c1ccccc1 (stereo not given),> 200,31.6,–
COc1ccc2nc3cccc([N+](=O)[O-])c3c(NCCN(C)C)c2c1,> 2,0.0977,–
CCOC(=N)N1CCCCC1,> 200,> 200,–
Cc1ccc(S(=O)(=O)N2CCC[C@@H]2C(=O)O[C@@H]2CCC3CC=CC32)cc1 (stereo not given in full),> 200,12.6,–
CC(=O)OC1(C)C(=O)OC1(C)C(C)=O (stereo not given),–,–,inactive
Cc1ccc(S(=O)(=O)N2C3C=CC(C3)[C@@H]2C(Cl)(Cl)Cl)cc1 (stereo not given in full),> 200,30.9,–
COc1ccc(Cc2nccc3cc(OC)c(OC)cc23)cc1,> 72.4,69.2,–
COc1ccc(-c2c(-c3ccccc3)c(C)nc3nc(SC)nc(SC)c23)cc1OC,> 200,11.5,–
CCOC(=O)N1CC2(C(=O)OC)C=CC1C(C(=O)OC)C2 (stereo not given),> 200,> 200,–
CC(C)CCCC(C)[C@H]1CC[C@H]2[C@H]3CC[C@@H]4C[C@H](CCC=C(c5cc(Cl)c(O)c(C(=O)O)c5)c5cc(Cl)c(O)c(C(=O)O)c5)CC[C@]4(C)[C@H]3CC[C@]12C (stereo not given in full),41.7,> 200,–

SMILES,EC50 [µM],IC50 [µM],outcome
CCCCC(CC)CN=Cc1c(O)c(O)c(C(C)C)c2cc(C)c(-c3c(C)cc4c(C(C)C)c(O)c(O)c(C=NCC(CC)CCCC)c4c3O)c(O)c12 (stereo not given),> 200,145,–
Clc1cccc(C=NC23CC4CC(CC(C4)C2)C3)c1Cl,> 200,13.2,–
Brc1cc2nn(-c3ccccc3)nc2c2nonc12,> 200,> 200,–
O=[N+]([O-])c1cccc[c]1[Sb](=[O])([OH])[c]1ccccc1[N+](=O)[O-],> 200,25.1,–
Cc1ccc(NC(=O)CCc2cc(C(C)(C)C)nc(=S)[nH]2)cc1C,> 724,398,–
O=c1[nH]c2ccccc2nc1CBr,> 200,2.82,–
CC(=O)CC(c1ccccc1)c1c(O)c2ccccc2oc1=O (stereo not given),> 813,372,–
CC(C)CCCC(C)C1CCC2[C@@H]3CCC4C[C@@H](CCC=C(c5cc(Br)c(O)c(C(=O)O)c5)c5cc(Br)c(O)c(C(=O)O)c5)CC[C@]4(C)C3CC[C@]12C (stereo not given in full),20.9,282,–
O=C1C=CC(=O)[C@H]2C3C=CC(C4C3C3(Cl)C(Cl)=C(Cl)[C@]4(Cl)C3(Cl)Cl)[C@@H]12 (stereo not given in full),> 200,12,–
Nc1[nH]c(=S)[nH]c(=O)c1N=O,> 200,> 200,–
CC(C)(C)CC(C)(C)c1cc2c(O)c(c1)Cc1cc(C(C)(C)CC(C)(C)C)cc(c1O)Cc1cc(C(C)(C)CC(C)(C)C)cc(c1O)Cc1cc(C(C)(C)CC(C)(C)C)cc(c1O)Cc1cc(C(C)(C)CC(C)(C)C)cc(c1O)C2,> 8.71,> 8.71,–
Cn1c(=O)nc2n(-c3ccc(Cl)cc3)c3ccc(Cl)cc3nc-2c1=O,–,–,inactive
c1ccc2c(CCNC3=NCCO3)cccc2c1,–,–,inactive
CCC(=O)NC(Nc1cccc(F)c1)(C(F)(F)F)C(F)(F)F,> 200,> 200,–
CCN(CC)CC(=O)Nc1ccc(CO)cc1,> 200,> 200,–
O=C1c2ccccc2C(=O)C2C1C1C(=O)c3ccccc3C(=O)C21 (stereo not given),–,–,inactive
CC(C)(C)OC(=O)NC(CSCc1ccc(C(=O)c2ccccc2)cc1)C(=O)N1CCN(CCCCN2c3ccccc3Sc3cc(N=[N+]=[N-])ccc32)CC1 (stereo not given),> 200,> 200,–
C=C(C)C(=Nc1ccc(Cl)c(Cl)c1)N(C)C,–,–,inactive
CC1CCN(CCC(=O)CC(c2ccccc2)c2c(O)c3ccccc3oc2=O)CC1 (stereo not given),> 97.7,57.5,–
O=C1Nc2ccccc2Oc2ccccc21,51.3,> 200,–
O=c1nc2occc2cn1C1CC(O)C(CO)O1 (stereo not given),> 513,> 513,–

# Reference: PubChem BioAssay AID179 (DTP/NCI, 2004)
